Experimental data reported in the supplement of paper PMC10307832.

Key:
Assay in all cases: relative viability (nuclei count vs DMSO), 5 days (fraction); higher = more cells survive
[1] = compound: C=CCNC1=C2C[C@@H](C)C[C@H](OC)[C@H](O)[C@@H](C)/C=C(\C)[C@H](OC(N)=O)[C@@H](OC)/C=C\C=C(/C)C(=O)NC(=CC1=O)C2=O [17-AAG] + Cc1nc(Nc2ncc(C(=O)Nc3c(C)cccc3Cl)s2)cc(N2CCN(CCO)CC2)n1 [Dasatinib] (partner 0.075 µM)
Outline: (§1)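 The day after seeding in 1536-well plates, lung cancer cell lines were treated by pin tool with a single drug, or with a fixed anchor-drug dose together with five library-drug doses (not always all listed) in √10 steps. After 5 days, a combined fix-and-stain solution (final 0.05% Triton X-100, 1% formaldehyde, 1 ug/ml Hoechst) was added. Nuclei counted on 4× images gave relative viability as treated counts over vehicle counts, reported as the median of duplicate plates.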

[2] = compound: C=CCNC1=C2C[C@@H](C)C[C@H](OC)[C@H](O)[C@@H](C)/C=C(\C)[C@H](OC(N)=O)[C@@H](OC)/C=C\C=C(/C)C(=O)NC(=CC1=O)C2=O [17-AAG] + CC(=O)c1c(C)c2cnc(Nc3ccc(N4CCNCC4)cn3)nc2n(C2CCCC2)c1=O [Palbociclib] (partner 0.5 µM)
Outline: as §1

[3] = compound: C=CCNC1=C2C[C@@H](C)C[C@H](OC)[C@H](O)[C@@H](C)/C=C(\C)[C@H](OC(N)=O)[C@@H](OC)/C=C\C=C(/C)C(=O)NC(=CC1=O)C2=O [17-AAG] + CC(C)C[C@H](NC(=O)[C@H](Cc1ccccc1)NC(=O)c1cnccn1)B(O)O [Bortezomib] (partner 0.002 µM)
Outline: as §1

[4] = compound: C=CCNC1=C2C[C@@H](C)C[C@H](OC)[C@H](O)[C@@H](C)/C=C(\C)[C@H](OC(N)=O)[C@@H](OC)/C=C\C=C(/C)C(=O)NC(=CC1=O)C2=O [17-AAG] + CCNC(=O)c1noc(-c2cc(C(C)C)c(O)cc2O)c1-c1ccc(CN2CCOCC2)cc1 [Luminespib] (partner 0.01 µM)
Outline: as §1

| Cell Line | relative viability ([1]; first compound 0.00128 µM) | relative viability ([1]; first compound 0.004048 µM) | relative viability ([1]; first compound 0.0128 µM) | relative viability ([1]; first compound 0.04048 µM) | relative viability ([1]; first compound 0.128 µM) | relative viability ([2]; first compound 0.00128 µM) | relative viability ([2]; first compound 0.004048 µM) | relative viability ([2]; first compound 0.0128 µM) | relative viability ([2]; first compound 0.04048 µM) | relative viability ([2]; first compound 0.128 µM) | relative viability ([3]; first compound 0.00128 µM) | relative viability ([3]; first compound 0.004048 µM) | relative viability ([3]; first compound 0.0128 µM) | relative viability ([3]; first compound 0.04048 µM) | relative viability ([3]; first compound 0.128 µM) | relative viability ([4]; first compound 0.00128 µM) | relative viability ([4]; first compound 0.004048 µM) | relative viability ([4]; first compound 0.0128 µM) | relative viability ([4]; first compound 0.04048 µM) | relative viability ([4]; first compound 0.128 µM) |
| --- | --- | --- | --- | --- | --- | --- | --- | --- | --- | --- | --- | --- | --- | --- | --- | --- | --- | --- | --- | --- |
| BEN | 0.354 | 0.376 | 0.469 | 0.298 | 0.232 | 0.466 | 0.484 | 0.54 | 0.491 | 0.337 | 0.917 | 1.14 | 0.997 | 0.64 | 0.232 | 0.33 | 0.408 | 0.206 | 0.241 | 0.194 |
| NCI-H23 | 0.697 | 0.746 | 0.389 | 0.165 | 0.119 | 0.503 | 0.456 | 0.292 | 0.192 | 0.14 | 0.92 | 0.635 | 0.232 | 0.168 | 0.127 | 0.242 | 0.208 | 0.19 | 0.206 | 0.202 |
| CAL-12T | 0.475 | 0.396 | 0.456 | 0.326 | 0.0959 | 0.499 | 0.364 | 0.486 | 0.191 | 0.167 | 1.11 | 0.899 | 0.904 | 0.726 | 0.469 | 0.33 | 0.331 | 0.175 | 0.14 | 0.113 |
| EPLC-272H | 0.436 | 0.387 | 0.205 | 0.0643 | 0.0761 | 0.34 | 0.323 | 0.348 | 0.147 | 0.0684 | 0.89 | 0.821 | 0.97 | 0.855 | 0.171 | 0.191 | 0.231 | 0.201 | 0.173 | 0.0978 |
| LCLC-103H | 0.446 | 0.522 | 0.464 | 0.456 | 0.46 | 0.5 | 0.471 | 0.489 | 0.477 | 0.464 | 1.02 | 1.17 | 1.02 | 1.13 | 1.09 | 1.04 | 0.891 | 0.98 | 0.999 | 0.798 |
| NCI-H3122 | 0.854 | 0.754 | 0.0689 | 0.0681 | 0.0701 | 0.194 | 0.155 | 0.19 | 0.0911 | 0.117 | 0.926 | 0.954 | 0.506 | 0.488 | 0.177 | 0.099 | 0.059 | 0.0637 | 0.0599 | 0.096 |
| HCC-15 | 0.617 | 0.434 | 0.0928 | 0.0907 | 0.0837 | 0.693 | 0.687 | 0.429 | 0.31 | 0.149 | 1.01 | 0.816 | 0.502 | 0.542 | 0.127 | 0.301 | 0.23 | 0.131 | 0.128 | 0.102 |
| RERF-LC-KJ | 0.742 | 0.833 | 0.276 | 0.266 | 0.248 | 1.11 | 1.07 | 0.857 | 0.472 | 0.219 | 1.17 | 1.17 | 0.888 | 0.288 | 0.303 | 1.06 | 0.595 | 0.398 | 0.357 | 0.325 |
| HARA | 0.234 | 0.278 | 0.261 | 0.284 | 0.141 | 0.248 | 0.27 | 0.261 | 0.263 | 0.215 | 1.08 | 1.11 | 1.14 | 1.14 | 0.187 | 0.831 | 0.544 | 0.757 | 0.525 | 0.207 |
| NCI-H2126 | 0.596 | 0.515 | 0.202 | 0.22 | 0.243 | 0.358 | 0.375 | 0.364 | 0.344 | 0.349 | 1.09 | 1.1 | 0.993 | 1.06 | 0.255 | 0.681 | 0.499 | 0.261 | 0.243 | 0.292 |
| LXF-289 | 0.234 | 0.183 | 0.0975 | 0.064 | 0.0605 | 0.606 | 0.55 | 0.602 | 0.545 | 0.227 | 0.99 | 0.994 | 0.815 | 0.478 | 0.108 | 0.628 | 0.556 | 0.377 | 0.121 | 0.0993 |
| NCI-H520 | 0.241 | 0.236 | 0.21 | 0.169 | 0.121 | 0.232 | 0.228 | 0.175 | 0.153 | 0.133 | 0.512 | 0.58 | 0.251 | 0.14 | 0.0925 | 0.236 | 0.22 | 0.227 | 0.202 | 0.188 |
| NCI-H2009 | 0.313 | 0.298 | 0.304 | 0.229 | 0.0827 | 0.22 | 0.254 | 0.258 | 0.203 | 0.0584 | 0.974 | 0.995 | 0.917 | 0.815 | 0.142 | 0.983 | 0.983 | 0.871 | 0.354 | 0.0842 |
